The target in this assay is T1, Dkk-1 (Mus musculus, UniProt O54908).
T1 construct: the primary circulating source of Dkk-1 in during both homeostatic and allergen-challenged conditions is platelets; from tissue; host or cells: living C57BL/6 mice; circulating Dkk-1 released from platelets
T1 sequence (O54908 32-272): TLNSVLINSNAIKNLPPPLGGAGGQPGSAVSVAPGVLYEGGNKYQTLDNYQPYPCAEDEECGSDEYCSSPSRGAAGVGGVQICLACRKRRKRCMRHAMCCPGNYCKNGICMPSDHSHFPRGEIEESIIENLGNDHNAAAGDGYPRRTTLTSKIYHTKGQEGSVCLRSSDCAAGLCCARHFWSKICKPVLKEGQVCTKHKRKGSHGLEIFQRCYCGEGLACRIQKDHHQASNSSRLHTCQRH
The experiment in a line: House dust mite (HDM)-induced asthma model. The class given is in vivo, mice. An excerpt: FIG. 1, comprising FIG. 1A through FIG. 1F, depicts results of experiments showing the characterization of Dkk-1^d/d mice. FIG. 1A depicts flow cytometry analysis of single cell suspensions from spleen of six to ten week-old Dkk-1^d/d mice (n=5) and their wildtype littermate controls (n=3). FIG. 1B depicts flow cytometry analysis of single cell suspensions from bone marrow of six to ten week-old Dkk-1^d/d mice (n=5) and their wildtype littermate controls (n=3). FIG. 1C depicts ELISA analysis of splenic CD4 T cells isolated by MACS and stimulated with anti-CD3 and anti-CD28 mAb (2 μg/ml) for 4 days. FIG. 1C depicts percentage of cells in peripheral blood from ten to twelve week-old Dkk-1^d/d mice (n=5) and their wildtype littermate controls (n=5) measured by HEMAVAT analyzer. WBC (White blood cells), NE (Neutrophils), LY (Lymphocytes), MO (Monocytes), EO (Eosinophils) were counted. FIG. 1D depicts cell number in peripheral blood from ten to twelve week-old Dkk-1^d/d mice (n=5) and their wildtype littermate controls (n=5) measured by HEMAVAT analyzer. WBC (White blood cells), NE (Neutrophils), LY (Lymphocytes), MO (Monocytes), EO (Eosinophils) were counted. FIG. 1F depicts airway resistance of Dkk-1^d/d and C57Bl/6 mice. […] Control group mice (n=3) were challenged with PBS. […] Dkk-1 inhibitor (10 mg/kg) was injected intraperitoneally at day −1, +1, +6, +8, +10, and +12. Student's t-test was used. n.s, not significant. Small horizontal lines indicate the mean (±s.e.m.). *, p<0.05
FIG. 11, comprising FIG. 11A through FIG. 11J, depicts results of experiments showing Dkk-1 facilitates leukocyte migration and regulates leukocyte-platelet aggregate formation in type 2 inflammation. FIG. 11A depicts flow cytometry analysis of CD45^+ cells in lung homogenates from nine-week old Dkk-1^d/d mice and wildtype littermate controls (n=5-6/group) 72 hours after challenge with 30 μg HDM allergen extract. FIG. 11B depicts analysis of percentages of CD45^+CD41^+ cells in peripheral blood from nine-week old Dkk-1^d/d mice and wildtype littermate controls collected at 4 hours and 24 hours after allergen challenge. FIG. 11C depicts flow cytometry analysis of CD45+ cells after Dkk-1 protein (300 ng/mouse) was injected intraperitoneally. FIG. 11D depicts a schematic diagram of Dkk-1 inhibitor treatment protocol for each group (n=5 for each group) in the HDM-induced asthma model. HDM allergen extract (10 μg) was challenged intranasally at the indicated time points. FIG. 11E depicts analysis of CD45^+ leukocytes numbers in BALF and Lung after Dkk-1 inhibitor treatment in the HDM-induced asthma model. FIG. 11F depicts analysis of neutrophils, eosinophils, and CD4 T cell numbers in the lungs after Dkk-1 inhibitor treatment in the HDM-induced asthma model. FIG. 11G depicts analysis of the number of CD4 T cells in mediastinal LNs. FIG. 11H depicts ELISA analysis of cytokines after 4 days of stimulation of med LN cells. FIG. 111 depicts scoring of H&E staining. FIG. 11J depicts scoring of PAS staining.
FIG. 13, comprising FIG. 13A through FIG. 13C, depicts results of experiments showing pharmacological antagonism of Dkk-1 in the HDM-induced asthma model. FIG. 13A depicts neutrophils and eosinophils in BALF. FIG. 13B depicts CD4 T cell percentages in med LNs measured by flow cytometry. FIG. 13C depicts representative images H&E and PAS staining. One-way ANOVA analysis with Dunnet's post-hoc test was performed. **, p<0.005, *, p<0.05.
FIG. 18 depicts results of experiments showing a Dkk-1 monoclonal antibody treatment protects […] mice from house dust mite (HDM)-induced asthma. Six-week-old female C57Bl/6 mice were treated with PBS(n=4), HDM(n=5), HDM and isotype antibody (n=5), and HDM plus Dkk-1 mAb (n=5). 10 μg of HDM was treated intranasally on day 0, 7, 8, 9, 10 and 11. Isotype antibody or Dkk-1 mAb was treated on day −1, +1, +6, +8, and +10. On day 14, mice were sacrificed and the lungs were harvested. fHCD45+ leukocytes were counted by flow cytometry. […]

This is an account of results in patent US11135223B2, “Compositions and methods for inhibiting Dkk-1” (YALE UNIVERSITY, priority 2016, dated 2021).

Structures are written as SMILES.

For the compound `NCC1CCN(c2nccc(-c3ccc4ccccc4c3)n2)CC1` [WAY-262611, (1-(4-(naphthalen-2-yl)pyrimidin-2-yl)piperidin-4-yl)methanamine], the “airway resistance increase by HDM” value (C57Bl/6 mice, Dkk-1 inhibitor 10 mg/kg intraperitoneally, FIG. 1F) was “notably decreased”. For the same compound, the “number of CD4 T cells in mediastinal lymph nodes” value (FIG. 11G) is given as “reduced”. The “Leukocyte infiltration including CD4 T cells, neutrophils, and eosinophils in BAL fluid and lung tissues” value (both ET (early treatment) and LT (late treatment) protocols, FIG. 11E, 11F, 13A) is listed as “markedly decreased”. Besides, the “histopathological scores (H&E, PAS)” value (challenge stage or sensitization stage treatment, FIG. 11I, 11J, 13C) is listed as “inhibition of type 2 inflammatory responses”. Besides, the “TH2 cytokine secretion from mediastinal lymph nodes” value (ex vivo stimulation of med LN cells 4 days, FIG. 11H) is recorded as “diminished”. In addition, the “percentage of CD4 T cells in the lymph nodes” value (mediastinal lymph nodes, FIG. 13) is “did not change”.
